Measurements published in patent US20070048234A1, “COMPOSITIONS AND METHODS FOR TREATING ACNE” (REVANCE THERAPEUTICS, INC., priority 2005, published 2007).
Counter-ions that a name gives are not always drawn.

Key:
acne lesion = test: topical multi-step treatment of an acne lesion (vasoconstricting composition, then anti-acne agent); format: in vivo; conditions: upon topical application of the vasoconstricting composition to the acne lesion
Description: (§1) This example provides a two step treatment for acne. The first step involves topically applying a vasoconstricting composition to the acne lesion to be treated. Suitable vasoconstricting compositions include tetrahydrozoline HCl 0.05%, naphazoline HCl 0.03%, or oxymetazoline HCl 0.025% in an aqueous base containing HPC to increase the viscosity for ease of application. Upon application of the vasoconstricting composition, the redness and swelling of the acne lesion diminishes, making the acne lesion less noticeable. After about 5 minutes, a second step is performed which involves topically applying 5% benzoyl peroxide 5% in an oil-in water moisturizer base. In this example, the benzoyl peroxide 5% is tinted to match the skin tone of the user, but this tinting is optional.
as §1, with “three-step nighttime” for “two step”, “peroxide” for “peroxide 5%”, “The acne lesion is then covered with a patch that includes silicone on” for “In this example,”, “skin-side” for “benzoyl peroxide 5% is tinted to match the skin tone”, “patch. The patch remains in place overnight and” for “user, but this tinting”, “removed in the morning.” for “optional.”
The following night, the three-step acne treatment is repeated.
This example provides a three-step acne treatment that is suitable for daytime use. The first step involves topically applying a vasoconstricting composition to the acne lesion to be treated. Suitable vasoconstricting compositions include tetrahydrozoline HCl 0.05%, naphazoline HCl 0.03%, or oxymetazoline HCl 0.025% in an aqueous base containing HPC to increase the viscosity for ease of application. […]

[1] = topical application; cited from earlier work
[2] = when topically applied; cited from earlier work
[3] = system: propionibacterium acnes (P. Acnes); conditions: compared with other medications on the market, prescription or otherwise; cited from earlier work

SMILES | redness and swelling of the acne lesion (acne lesion) | flux into the skin [1] | share of the population that experiences skin allergies [2] | kills propionibacterium acnes (P. Acnes) [3]
c1ccc2c(c1)CCCC2C1=NCCN1 (stereo not drawn) [tetrahydrozoline HCl 0.05%, tetrahydrozoline HCl] | diminishes |  |  | 
O=C(OOC(=O)c1ccccc1)c1ccccc1 [benzoyl peroxide] |  | high | about 10% | better than any other medication on the market
Cc1cc(C(C)(C)C)c(O)c(C)c1CC1=NCCN1 [oxymetazoline HCl 0.025%, oxymetazoline HCl] | diminishes |  |  | 
c1ccc2c(CC3=NCCN3)cccc2c1 [naphazoline HCl 0.03%, naphazoline HCl] | diminishes |  |  | 
